Measurements as given in patent US4695552A, “Process and reagent for the determination of the hemoglobin-haptoglobin complex in the presence of free hemoglobin” (Boehringer Mannheim GmbH, priority 1983, dated 1987).

Key:
Assay type in all cases: biochemical
free hemoglobin (Hb) [1] = biological target: T1, free hemoglobin (Hb) (Homo sapiens, UniProt P68871+P69905); assay: Peroxidase reaction of free hemoglobin with perborate and ABTS as substrate, with detergent added; conditions: ABTS 0.5 mmol/l., pH 3.8, 0.25 mg. Hb/ml.
T1 sequence (P69905 2-142 limits assumed): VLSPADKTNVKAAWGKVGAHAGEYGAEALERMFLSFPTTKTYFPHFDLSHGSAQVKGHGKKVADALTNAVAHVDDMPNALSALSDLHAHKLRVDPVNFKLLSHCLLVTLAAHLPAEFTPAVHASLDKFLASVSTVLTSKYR
T1 sequence (P68871 2-147 limits assumed): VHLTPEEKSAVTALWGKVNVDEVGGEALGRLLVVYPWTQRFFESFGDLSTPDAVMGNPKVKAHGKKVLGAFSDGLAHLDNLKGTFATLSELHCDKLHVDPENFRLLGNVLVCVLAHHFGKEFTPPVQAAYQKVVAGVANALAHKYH
Procedure: (§1) 2 ml. of a reagent solution containing 0.1 mol/liter of sodium citrate buffer (pH 3.8) and 0.5 mmol/liter ABTS are mixed with 0.025 ml. of a sample solution which contains free hemoglobin or the hemoglobin-haptoglobin complex with a hemoglobin concentration of 0.25 mg. Hb/ml. The peroxidase reaction is started with 0.020 ml. of 0.58 molar sodium perborate solution in 0.15 molar citric acid and the color development is monitored by extinction measurement at 436 nm. The reaction temperature is 25° C.
(§2) Analogous measurements are carried out in which, in addition to the above-mentioned components, there are added to the reagent solution the detergents mentioned in the following Table 3 in the concentrations there also given.

free hemoglobin (Hb) [2] = biological target: T1, free hemoglobin (Hb); assay: Peroxidase reaction of free hemoglobin with peroxide and guaiacol as substrate, with detergent added; conditions: digitonin 0.5 mg./ml.; guaiacol 30 mmol/l.; pH 4.0; 0.25 mg. Hb/ml.
Procedure: (§3) 2 ml. of a reagent solution containing 0.1 mol/liter of sodium acetate buffer (pH 4.0) and 30 or 15 mmol/liter of guaiacol are mixed with 0.05 ml. of a sample solution which contains free hemoglobin or a hemoglobin-haptoglobin complex with a hemoglobin concentration of 0.25 mg. Hb/ml. The peroxidase reaction is started with 0.1 ml. of 0.58 molar sodium perborate solution in 0.15 molar citric acid and the color development is monitored by extinction measurement at 436 nm. The reaction temperature is 25° C. After a certain time, the color development comes to a stop. Because of the instability of the colored material, the extinction again decreases. The extinction changes given in the following Table 4 are the initial velocities determined by plotting the tangents on the extinction-time curves.
(§4) Analogous measurements are carried out in which, to the reagent solution, there has been added, in each case, one of the detergents given in Table 4 in the there-given concentration.

[3] = biological target: T2, hemoglobin haptoglobin complex (Hb:Hp) (Homo sapiens, UniProt P68871+P69905); assay: Peroxidase reaction of hemoglobin-haptoglobin complex with peroxide and guaiacol as substrate, with detergent added; conditions: digitonin 0.5 mg./ml.; guaiacol 30 mmol/l.; pH 4.0
T2 sequence (P69905 2-142 limits assumed): as the sequence (P69905 2-142 limits assumed) above
T2 sequence (P68871 2-147 limits assumed): as the sequence (P68871 2-147 limits assumed) above
T2 sequence (P00738 162-406 partner limits assumed): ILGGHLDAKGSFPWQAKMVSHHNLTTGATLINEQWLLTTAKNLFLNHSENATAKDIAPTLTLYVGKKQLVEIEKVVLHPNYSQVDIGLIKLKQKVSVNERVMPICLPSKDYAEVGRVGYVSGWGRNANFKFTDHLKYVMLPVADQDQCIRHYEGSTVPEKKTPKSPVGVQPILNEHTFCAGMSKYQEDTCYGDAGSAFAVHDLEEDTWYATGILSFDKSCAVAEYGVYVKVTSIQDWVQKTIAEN
Procedure: as §3, §4

[4] = biological target: T2, hemoglobin haptoglobin complex (Hb:Hp); assay: Peroxidase reaction of hemoglobin-haptoglobin complex with perborate and ABTS as substrate, with detergent added; conditions: ABTS 0.5 mmol/l., pH 3.8
Procedure: as §1, §2

C[C@@H]1CC[C@@]2(OC1)O[C@H]1[C@@H](O)[C@H]3[C@@H]4CC[C@H]5C[C@@H](O[C@@H]6O[C@H](CO)[C@H](O[C@@H]7O[C@H](CO)[C@@H](O)[C@H](O[C@@H]8OC[C@@H](O)[C@H](O)[C@H]8O)[C@H]7O[C@@H]7O[C@H](CO)[C@H](O)[C@H](O[C@@H]8O[C@H](CO)[C@@H](O)[C@H](O)[C@H]8O)[C@H]7O)[C@H](O)[C@H]6O)[C@H](O)C[C@]5(C)[C@H]4CC[C@]3(C)[C@H]1[C@@H]2C [digitonin]
ΔE/min. Hb (free hemoglobin (Hb) [1]; digitonin 0.15 mg./ml.): 21.8 mE/min. | ΔE/min. Hb (free hemoglobin (Hb) [1]; digitonin 0.3 mg./ml.): 20 mE/min. | ΔE/min. Hb (free hemoglobin (Hb) [2]): 3 mE/min. | Hb:Hp / Hb [3]: 50 | ΔE/min. Hb:Hp [3]: 154 mE/min. | Hb:Hp / Hb ([4]; digitonin 0.15 mg./ml.): 37.6 | ΔE/min. Hb:Hp ([4]; digitonin 0.15 mg./ml.): 818 mE/min. | Hb:Hp / Hb ([4]; digitonin 0.3 mg./ml.): 41 | ΔE/min. Hb:Hp ([4]; digitonin 0.3 mg./ml.): 818 mE/min.
